Assay results as given in patent US5625043A, “Anthracyclines with unusually high activity against cells resistant to doxorubicin and its analogs” (Priebe; Waldemar, priority 1995, dated 1997).

Key:
[1] = test system: transplanted MDR L1210 cells; settings: cited from earlier work
J7/40V cells = assay: Cytotoxicity against vinblastine-resistant J7/40V cells; type: cell-based, murine
J7/A300 cells = assay: Cytotoxicity against AD 198-resistant J7/A300 cells; type: cell-based, murine
AD 198^R cells = AD 198^R cells versus drug-sensitive cells; cited from earlier work
[2] = test system: P388 and L1210 leukemic cells and B16-BL6 melanoma cells; settings: cited from earlier work
[3] = test system: purified mammalian topoisomerase II; settings: cited from earlier work
[4] = test system: MDR J774.2 cells selected with vinblastine; settings: MDR J774.2 selected with vinblastine; cited from earlier work
J774.2 cells = assay: Cytotoxicity against J774.2 cells; type: cell-based, murine; settings: Mus musculus, J774.2; read-out: ID50 (the source's name)
purified DNA = settings: compared with anthracycline; cited from earlier work
membrane = settings: compared with anthracycline; cited from earlier work
G2/M blockade = settings: compared with anthracycline; cited from earlier work
P-gp = settings: not told; cited from earlier work
RNA versus DNA synthesis = settings: compared with anthracycline; cited from earlier work
[5] = test system: cultured murine and human tumor cells; settings: compared with anthracycline; cited from earlier work
DNA = settings: alkaline elution assays; cited from earlier work
[6] = test system: variant CCRF-CEM leukemic cells; settings: cited from earlier work

Structure (SMILES): CCCCC(=O)OCC(=O)[C@]1(O)Cc2c(O)c3c(c(O)c2[C@@H](O[C@H]2C[C@H](NCc4ccccc4)[C@H](O)[C@H](C)O2)C1)C(=O)c1c(OC)cccc1C3=O [AD 198]
- efficacy in vivo [1]: limited efficacy
- RI J7/40V (J7/40V cells; J7/40V versus J774.2): 14
- IC50 (J7/40V cells; Mus musculus, J7/40V, read-out: ID50 (the source's name)): 0.663 µM
- resistance of cell line to the selecting drug (J7/A300 cells; AD 198 resistant J7/A300 cells): 15 -fold
- RI J7/A300 (J7/A300 cells; J7/A300 versus J774.2): 15
- IC50 (J7/A300 cells; Mus musculus, J7/A300, read-out: ID50 (the source's name)): 0.748 µM
- intracellular level of AD 198 (AD 198^R cells): high levels of intracellular AD 198 similar to that of drug-sensitive cells
- ability to circumvent MDR [2]: ability to circumvent MDR
- inhibition of purified mammalian topoisomerase II [3]: lack of inhibition
- cross-resistance [4]: cross-resistant to AD 198
- IC50 (J774.2 cells): 0.049 µM
- binding to purified DNA (purified DNA): weaker binding to purified DNA
- membrane lytic activity (membrane): pronounced membrane lytic activity
- G2/M blockade (G2/M blockade): irreversible G2 /M blockade
- transport by P-gp from the cell (P-gp): inability of P-gp to transport AD 198 from the cell
- inhibition of RNA versus DNA synthesis (RNA versus DNA synthesis): preferential inhibition of RNA versus DNA synthesis
- cytotoxicity [5]: enhanced cytotoxicity
- protein-associated DNA strand breaks (DNA): significant levels of protein-associated DNA strand breaks
- ability to circumvent MDR and resistance due to altered topoisomerase II activity [6]: ability to circumvent MDR
